Like-named read-outs stand apart in the source and are kept apart here. No end group written: not given here.
Tests used:
MRSA USA-300 = experiment: AAMP assay and checkerboard synergy; format: cell-based, Staphylococcus aureus; settings: for MIC of the antimicrobial in comb. with GarKS: MRSA USA-300; for MIC: Staphylococcus aureus, MRSA, 24 h, read-out: MIC, single antimicrobial
Method: (§1) Antimicrobial activity was measured using the AAMP assay (Wiegand et al., 2008, Nat. Protoc., Vol. 3(2), p 163-175).
(§2) Synergy testing was done with a microtiter plate checkerboard assay as previously described (Orhan et al., 2005, J. Clin. Microbiol., Vol. 43(1), p 140-143). Briefly, equal amounts of antimicrobial A were applied on microtiter plate 1 in wells A1-H1 and then diluted two-fold to wells 2-12. Similarly, equal amounts of antimicrobial B were applied on microtiter plate 2 in wells A1-A12 and diluted two-fold in wells B-H. Volumes of 50 μl of antimicrobial A from each well of microtiter plate 1 were transferred into microtiter plate 3, except for wells H1-H12. Similarly, the same volumes were transferred from microtiter plate 2 into plate 3, except for wells A1-A8. A 100 μl volume of 25 times diluted ON bacterial culture of MRSA was transferred into each well of plate 3. A 50 μl volume of pure broth was added into each well in lines H1-H12 and A1-A8 which were used to estimate MIC values of pure substances (blank).
(§3) Three-component synergy was assessed by mixing the three components (100 μg of PenG, 50 μg of GarKS and 2.5 μg of MP1) into one well of a microtiter plate, compared with activity of individual antimicrobials on the same plate. The fractional inhibition concentration (FIC) which was used to define synergy was calculated as set forth in Example 1.

MRSA ATCC 33591-lux = experiment: AAMP assay and checkerboard synergy; format: cell-based, Staphylococcus aureus; settings: for MIC: Staphylococcus aureus, 24 h, read-out: MIC, single antimicrobial
Method: as §1, §2, §3

MRSA 43484 = experiment: AAMP assay and checkerboard synergy; format: cell-based, Staphylococcus aureus; settings: for MIC: Staphylococcus aureus, 24 h, read-out: MIC, single antimicrobial
Method: as §1, §2, §3

[1] = test system: S. pseudintermedius MRSP 45; experiment: microbe, parasite or virus in culture; format: cell-based, Staphylococcus pseudintermedius; settings: Staphylococcus pseudintermedius, read-out: MIC, single component
Method: as §1, §2
(§4) Antimicrobial activity was measured using the AAMP assay as described in Example 2.
(§5) Synergy testing was performed as in Example 2.

[2] = test system: three MRSA strains (ATCC33591-lux, USA-300 and MRSA 43484); experiment: AAMP assay and checkerboard synergy, summary; format: cell-based, Staphylococcus aureus; settings: for MIC: Staphylococcus aureus, 24 h
Method: as §2, with “Briefly,” for “Synergy testing was done with a microtiter plate checkerboard assay as previously described (Orhan et al., 2005, J. Clin. Microbiol., Vol. 43(1), p 140-143). Briefly,”, “A 100 μl volume of 25 times diluted ON bacterial culture of MRSA was transferred into each well of plate 3.” left out
Three-component synergy was assessed by mixing the three components (100 μg of PenG, 50 μg of GarKS and 2.5 μg of MP1) into one well of a microtiter plate, compared with activity of individual antimicrobials on the same plate.

S. aureus LMG3307 = experiment: AAMP assay (MIC), single components and formulation mixture; format: cell-based, Staphylococcus aureus; settings: Staphylococcus aureus, LMG3307, 24 h; read-out: MIC, single component
Method: as §1, §3

S. aureus LMG3322 = experiment: as above; format: cell-based, Staphylococcus aureus; settings: Staphylococcus aureus, LMG3322, 24 h; read-out: MIC, single component
Method: as §1, §3

S. aureus LMG3026 = experiment: as above; format: cell-based, Staphylococcus aureus; settings: Staphylococcus aureus, LMG3026, 24 h; read-out: MIC, single component
Method: as §1, §3

S. aureus LMG3263 = experiment: as above; format: cell-based, Staphylococcus aureus
Method: as §1, §3

S. aureus LMG3255 = experiment: as above; format: cell-based, Staphylococcus aureus
Method: as §1, §3

S. aureus LMG3264 = experiment: as above; format: cell-based, Staphylococcus aureus
Method: as §1, §3

S. aureus LMG3258 = experiment: as above; format: cell-based, Staphylococcus aureus; settings: Staphylococcus aureus, LMG3258, 24 h; read-out: MIC, single component
Method: as §1, §3

S. aureus LMG3314 = experiment: as above; format: cell-based, Staphylococcus aureus; settings: Staphylococcus aureus, LMG3314, 24 h; read-out: MIC, single component
Method: as §1, §3

S. aureus LMG3242 = experiment: as above; format: cell-based, Staphylococcus aureus
Method: as §1, §3

S. aureus LMG3271 = experiment: as above; format: cell-based, Staphylococcus aureus; settings: Staphylococcus aureus, LMG3271, 24 h; read-out: MIC, single component
Method: as §1, §3

S. aureus LMG3328 = experiment: as above; format: cell-based, Staphylococcus aureus; settings: Staphylococcus aureus, LMG3328, 24 h; read-out: MIC, single component
Method: as §1, §3

S. aureus LMG3265 = experiment: as above; format: cell-based, Staphylococcus aureus; settings: Staphylococcus aureus, LMG3265, 24 h; read-out: MIC, single component
Method: as §1, §3

S. aureus LMG3266 = experiment: as above; format: cell-based, Staphylococcus aureus
Method: as §1, §3

MRSA ATCC 33591 = experiment: microbe, parasite or virus in culture; format: cell-based, Staphylococcus aureus; settings: for MIC: Staphylococcus aureus, 24 h, read-out: MIC, single antimicrobial
Method: as §1, §2, §4, §5

[3] = test system: Methicillin-Resistant Staphylococcus aureus; format: in vivo, mice; settings: repeat on larger groups
Method: The experiment was performed essentially as set out in Example 2, except that the following regimes as described below, were used.
50-70 μl of cream was applied per wound.
Treatment was daily for 4 days.
The rifampicin/MP1 experiment was repeated on a larger group of mice in each category (8 mice for each of rifampicin, MP1, rifampicin+MP1, 8 mice with APO base cream 30% as used for rifampicin and MP1, 7 mice untreated). Seven mice were also treated with fucidin cream (2% fusidic acid in a cream base) as a positive control.

E. faecium LMGT 3104 = experiment: microbe, parasite or virus in culture; format: cell-based, Enterococcus faecium
Method: as §1, §2, §4, §5

| Compound | MIC of the antimicrobial in comb. with GarKS (MRSA USA-300) | MIC (MRSA USA-300) | MIC of the antimicrobial in comb. with GarKS (MRSA 43484; MRSA 43484) | MIC (S. aureus LMG3307) | MIC (S. aureus LMG3322) | MIC (S. aureus LMG3026) | MIC (S. aureus LMG3258) | MIC (S. aureus LMG3314) | MIC (S. aureus LMG3271) | MIC (S. aureus LMG3328) | MIC (S. aureus LMG3265) | MIC of MP1 in comb. with the labelled antimicrobial (MRSA ATCC 33591) | MIC of the labelled antimicrobial in comb. with MP1 (MRSA ATCC 33591) | MIC (MRSA ATCC 33591) | other results |
| --- | --- | --- | --- | --- | --- | --- | --- | --- | --- | --- | --- | --- | --- | --- | --- |
| O=C(N[C@H](CO)[C@H](O)c1ccc([N+](=O)[O-])cc1)C(Cl)Cl [Cam, Chloramphenicol] | 64 µg/mL | 125 µg/mL | 64 µg/mL | 8 µg/mL | 8 µg/mL | 8 µg/mL | 16 µg/mL | 8 µg/mL | 16 µg/mL | 8 µg/mL | 32 µg/mL | 0.08 µg/mL | 8 µg/mL | 62 µg/mL | MIC of the antimicrobial in comb. with GarKS (MRSA ATCC 33591-lux; MRSA ATCC 33591-lux): 32/32 μg/ml; MIC (MRSA ATCC 33591-lux): 125 µg/mL; MIC (MRSA 43484; MRSA 43484): 16 µg/mL; MIC ([1]; MRSP45, MRSP 45, 24 h, Table 8): 62 µg/mL; MIC of the antimicrobial in comb. with GarKS ([2]; All three strains): 32 to 64 µg/mL; MIC ([2]; read-out: MIC, single antimicrobial, All three strains): 16 to 125 µg/mL; synergy with GarKS ([2]; checkerboard assay): no synergy or only additive effects; MIC (S. aureus LMG3263; Staphylococcus aureus, LMG3263, 24 h; read-out: MIC, single component): 32 µg/mL; MIC (S. aureus LMG3255; Staphylococcus aureus, LMG3255, 24 h; read-out: MIC, single component): 16 µg/mL; MIC (S. aureus LMG3264; Staphylococcus aureus, LMG3264, 24 h; read-out: MIC, single component): 16 µg/mL; MIC (S. aureus LMG3242; Staphylococcus aureus, LMG3242, 24 h; read-out: MIC, single component): 8 µg/mL; MIC (S. aureus LMG3266; Staphylococcus aureus, LMG3266, 24 h; read-out: MIC, single component): 32 µg/mL |
| CO[C@H]1/C=C/O[C@@]2(C)Oc3c(C)c(O)c4c(O)c(c(/C=N/N5CCN(C)CC5)c(O)c4c3C2=O)NC(=O)/C(C)=C\C=C\[C@H](C)[C@H](O)[C@@H](C)[C@@H](O)[C@@H](C)[C@H](OC(C)=O)[C@@H]1C [Rifampicin] |  |  |  |  |  |  |  |  |  |  |  | 0.08 µg/mL | 1.5 µg/mL | > 100 µg/mL | duration of the antimicrobial effect [3]: less than 48 hours |
| MKFKFNPTGTIVKKLTQYEIAWFKNKHGYYPWEIPRC [EntK1] |  |  |  |  |  |  |  |  |  |  |  |  |  |  | MIC of MP1 in comb. with the labelled antimicrobial (E. faecium LMGT 3104): 0.02 µg/mL; MIC of the labelled antimicrobial in comb. with MP1 (E. faecium LMGT 3104): 0.4 µg/mL; MIC, single antimicrobial (E. faecium LMGT 3104): >250 µg/mL |
| NC[C@H]1O[C@H](O[C@H]2[C@H](O)[C@@H](O[C@H]3O[C@H](CO)[C@@H](O)[C@H](N)[C@H]3O)[C@H](N)C[C@@H]2N)[C@H](O)[C@@H](O)[C@@H]1O [Kan, Kanamycin] | 32/32 μg/ml | > 125 µg/mL | 32/32 μg/ml | 64 µg/mL | 64 µg/mL | 16 µg/mL | 125 µg/mL | 64 µg/mL | 64 µg/mL | 32 µg/mL | 64 µg/mL |  |  |  | MIC (MRSA ATCC 33591-lux; MRSA ATCC 33591-lux): > 125 µg/mL; MIC (MRSA 43484; MRSA): > 125 µg/mL; MIC ([1]; MRSP45, 24 h): > 1250 µg/mL; MIC, single antimicrobial ([2]; All three strains): >125 µg/mL; MIC ([2]; All three strains, read-out: MIC, single antimicrobial): > 125 µg/mL; MIC (S. aureus LMG3263; Staphylococcus aureus, LMG3263, 24 h, read-out: MIC, single component): > 125 µg/mL; MIC (S. aureus LMG3255; Staphylococcus aureus, LMG3255, 24 h, read-out: MIC, single component): > 125 µg/mL; MIC (S. aureus LMG3264; Staphylococcus aureus, LMG3264, 24 h, read-out: MIC, single component): > 125 µg/mL; MIC (S. aureus LMG3242; Staphylococcus aureus, LMG3242, 24 h, read-out: MIC, single component): > 125 µg/mL; MIC (S. aureus LMG3266; Staphylococcus aureus, LMG3266, 24 h, read-out: MIC, single component): > 125 µg/mL |

From patent US20240041976A1, “COMPOSITION AND USE” (priority 2020, published 2024)
